{
  "source": "patent US20230141863A1",
  "about": "“Small Molecule Inhibitors Targeting the Sodium Channel Tamoxifen Receptor and Uses Thereof” (Northwestern University, priority 2021, published 2023)",
  "key": {"[1]": {"target": "T1, Nav1.7 D1458A in domain III (Homo sapiens, UniProt Q15858, D1458A)", "T1 construct": "expressed in transfected cells", "T1 sequence (Q15858 whole entry D1458A, the tested form may be a part)": "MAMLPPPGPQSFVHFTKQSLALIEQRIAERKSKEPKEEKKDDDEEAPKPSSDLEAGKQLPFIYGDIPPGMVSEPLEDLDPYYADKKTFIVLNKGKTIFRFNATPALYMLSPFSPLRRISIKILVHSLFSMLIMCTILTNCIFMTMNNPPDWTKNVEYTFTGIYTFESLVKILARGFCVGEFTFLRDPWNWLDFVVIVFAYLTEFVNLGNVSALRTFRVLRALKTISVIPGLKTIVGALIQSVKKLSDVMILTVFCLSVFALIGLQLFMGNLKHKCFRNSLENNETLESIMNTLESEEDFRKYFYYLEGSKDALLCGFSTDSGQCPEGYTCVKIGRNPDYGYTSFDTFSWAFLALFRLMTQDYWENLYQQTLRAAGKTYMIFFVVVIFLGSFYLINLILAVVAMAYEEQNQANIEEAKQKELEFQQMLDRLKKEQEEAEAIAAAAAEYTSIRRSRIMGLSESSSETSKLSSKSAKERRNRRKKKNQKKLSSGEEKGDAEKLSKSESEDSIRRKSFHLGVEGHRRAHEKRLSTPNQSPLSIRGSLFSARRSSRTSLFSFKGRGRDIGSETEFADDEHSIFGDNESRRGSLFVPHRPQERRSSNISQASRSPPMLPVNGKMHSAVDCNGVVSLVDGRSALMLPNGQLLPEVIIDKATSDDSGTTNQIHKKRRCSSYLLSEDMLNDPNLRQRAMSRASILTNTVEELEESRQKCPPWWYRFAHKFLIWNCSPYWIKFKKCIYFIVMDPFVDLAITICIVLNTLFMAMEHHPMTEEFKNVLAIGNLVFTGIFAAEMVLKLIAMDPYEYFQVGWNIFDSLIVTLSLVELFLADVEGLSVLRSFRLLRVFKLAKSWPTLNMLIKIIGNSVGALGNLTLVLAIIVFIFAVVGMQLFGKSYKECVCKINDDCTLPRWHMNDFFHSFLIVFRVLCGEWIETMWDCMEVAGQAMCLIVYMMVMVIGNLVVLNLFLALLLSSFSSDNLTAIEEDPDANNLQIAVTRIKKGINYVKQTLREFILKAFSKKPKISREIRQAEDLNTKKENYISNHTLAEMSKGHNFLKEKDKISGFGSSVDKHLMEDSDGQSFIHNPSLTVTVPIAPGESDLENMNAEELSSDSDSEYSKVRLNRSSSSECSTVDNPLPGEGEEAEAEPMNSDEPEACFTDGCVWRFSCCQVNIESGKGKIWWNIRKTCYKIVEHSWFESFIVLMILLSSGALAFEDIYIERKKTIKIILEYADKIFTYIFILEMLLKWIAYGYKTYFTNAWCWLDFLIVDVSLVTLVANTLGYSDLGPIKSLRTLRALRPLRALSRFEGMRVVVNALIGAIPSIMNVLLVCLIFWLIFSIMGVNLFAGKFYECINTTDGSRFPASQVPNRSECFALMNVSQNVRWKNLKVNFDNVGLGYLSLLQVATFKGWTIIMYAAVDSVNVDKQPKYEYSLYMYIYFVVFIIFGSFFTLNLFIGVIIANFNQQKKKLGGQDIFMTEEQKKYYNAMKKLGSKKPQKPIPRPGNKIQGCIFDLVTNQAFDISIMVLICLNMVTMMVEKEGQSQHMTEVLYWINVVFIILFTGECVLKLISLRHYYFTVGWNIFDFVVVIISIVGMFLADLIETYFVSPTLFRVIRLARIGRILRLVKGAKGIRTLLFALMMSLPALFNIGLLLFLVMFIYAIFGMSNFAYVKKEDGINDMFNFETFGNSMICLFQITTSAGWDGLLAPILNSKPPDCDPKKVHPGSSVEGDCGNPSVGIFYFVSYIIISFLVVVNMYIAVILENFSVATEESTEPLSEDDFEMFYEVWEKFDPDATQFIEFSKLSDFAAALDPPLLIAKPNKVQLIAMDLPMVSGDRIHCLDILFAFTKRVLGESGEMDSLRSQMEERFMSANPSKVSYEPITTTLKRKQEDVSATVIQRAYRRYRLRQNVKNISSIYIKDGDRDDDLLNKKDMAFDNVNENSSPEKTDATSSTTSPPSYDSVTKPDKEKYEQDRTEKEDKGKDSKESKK", "experiment": "Voltage clamp of Nav1.7 with alanine substitution in domain III", "assay_type": "cell-based", "method": "(§1) While no clear drug-receptor interactions were determined within Siteout, the S6 E220 side chains formed hydrogen bond interactions with the ether and amine moieties of the ND-Tam molecules found at Sitein. […] After structural alignment of the crystalized NavMs-Tam complex with the cryo EM Nav1.7+b1+b2 channel coordinates, the S6 side chain hydroxyl in DII (S969) and the carboxyl side chains in DIII (E1458) and DIV (D1761) observed in the human channel were nearly superimposable with E220 of the prokaryotic Nav subunits. In addition, the distances from the drug ether and amines were within acceptable distances (2.8-3.1 Å) for hydrogen bond formation for all three site chains (FIG. 2B). […]\n(§2) Plasmids encoding the human version of channels Nav1.1, 1.6, and 1.7 were co-transfected with TRES GFP into HEK cell lines for whole-cell voltage clamp studies (American Type Culture Collection). […] Plasma membrane currents were recorded using borosilicate glass electrodes polished to resistances of […]. Sodium currents conducted by heterologously expressed Navs were recorded using the following solutions (in mM). […] Endogenous DRG sodium currents were recorded using an intracellular solution consisting of 70 CsCl, 70 CsF, 2 EGTA, 5 HEPES, and 5 NaCl; the pH was adjusted to 7.4 with CsOH. […]"}, "[2]": {"tested_on": "mice with knee hyperalgesia post DMM surgery", "experiment": "In vivo osteoarthritis pain model (DMM), knee hyperalgesia after intra-articular injection", "design": "species or system mouse"}, "[3]": {"target": "Nav1.7 DII S969A and DIV D1761A (Homo sapiens, UniProt Q15858)", "sequence (Q15858 whole entry S969A, form open)": "as the sequence (Q15858 whole entry D1458A, the tested form may be a part) above, with S969A, A1458D counted along it", "experiment": "Voltage clamp of Nav1.7 with alanine substitutions in DII and DIV", "assay_type": "cell-based", "details": "range over DII S969A and DIV D1761A", "method": "as §1, §2"}},
  "note": "Entries after “also recorded” stand apart in the source; their conditions may differ.",
  "data": [
    {"smiles": "CC/C(=C(\\c1ccccc1)c1ccc(OCCNC)cc1)c1ccccc1", "note": "[ND-Tam, 2-[4-[(Z)-1,2-diphenylbut-1-enyl]phenoxy]-N-methylethanamine]", "values": [
      {"measurement": "slope of concentration-dependence", "setting": "[1]", "value": 2.2},
      {"measurement": "knee hyperalgesia versus vehicle (in words)", "setting": "[2]; 50 μM (~0.002 mg/kg) intra-articular, vehicle 50% EtOH, 30 minutes after injection, P=0.008", "value": "rapidly inhibited knee hyperalgesia pain compared to injection of vehicle; also recorded: provided relief from hyperalgesia compared to vehicle"},
      {"measurement": "area under the curve analysis of withdrawal thresholds (in words)", "setting": "[2]; 50 μM intra-articular, 0-3 hours after injection", "value": "performs similar to CBD and to lidocaine over time"},
      {"measurement": "knee hyperalgesia versus vehicle, direct comparison study (in words)", "setting": "[2]; 50 μM intra-articular, vehicle 0.1% DMSO, 30 minutes after injection", "value": "effectively inhibited knee hyperalgesia"},
      {"measurement": "knee withdrawal threshold versus vehicle control (in words)", "setting": "[2]; 50 μM intra-articular, vehicle 0.1% DMSO, through 3 hours after injection", "value": "remained elevated compared to vehicle control through 3 hours after injection"},
      {"measurement": "slope of concentration-dependence", "setting": "[3]", "value": "1.3-1.4"}
    ]}
  ]
}
